Patent US10383885B2, “Method for treating or preventing dry eyes” (priority 2015, dated 2019)

Key:
[1] = system: Human Corneal Epithelial (HCE) cells; experiment: Benzalkonium chloride cell damage model in HCE cells (trypan blue cell count); format: cell-based; conditions: HCE cells damaged with 0.0005% benzalkonium chloride for 24 hours, then 0.4, 2, 10 μg/ml compound for 48 hours
Experimental: Benzalkonium Chloride Cell Damage Model
The Human Corneal Epithelial (HCE) cells were seeded on a 6-well plate 5×10^5 cells with 10% FCS in DMEM/F12 for 24 hours. After cell attachment, medium was removed and changed into 0.0005% Benzalkonium chloride for 24 hours, then washed with PBS and treat with different concentrations 0.4, 2, 10 μg/ml of compound of Formula (I) (compound A) for 48 hours. At the end the cells were trypsinized and centrifuge 1000 rpm for 5 minutes, the supernatant was removed, added 1 ml of DMEM/F12 medium to resuspend the cells, followed by 0.4% trypan blue and the cell culture medium were 1:3 dilution, the number of cells were calculate under a microscope to observe the survivability of different concentrations treatment. The results are shown in FIG. 1. *P<0.05, **P<0.01 compared to the 0 μg/ml compound A group, Student's t-test. Data are expressed as mean±SD (n=3).

BAC induced dry eye mice [2] = experiment: Benzalkonium chloride induced dry eye mice model (2), phenol red thread tear test; format: in vivo, Male BALB/c mice; conditions: 0.3% BAC day 1 to 7; eye drops 5, 10 μg/ml thrice-daily, day 15 to 19; topical, right eye
Experimental: Benzalkonium Chloride Induced Dry Eye Mice Model (2)
(§1) Male BALB/c mice (9 weeks) was treated with thrice-daily (9:00, 13:30, 18:00) topical administration of 5 ul of 0.3% BAC in right eyes, mice was treated with PBS as control group, from day 1 to 7. And compound A (5, 10 μg/ml) was treated with thrice-daily (9:00, 13:30, 18:00) topical administration of 5 ul in right eyes, and PBS as control group, from day 15 to 19.
(§2) Phenol red thread tear test was used. The thread is yellow (acidic) and when it comes in contact with tears it changes to a light red color. Forceps were used to insert folded portion of the thread into the palpebral conjunctiva of the eye ⅓ of the distance from the lateral canthus of the lower eye lid. After 15 s, the thread was removed and the entire wet (Red) portion was measured. The phenol red thread test was on 14, 18, 20 day. The results are shown in FIG. 3. *P<0.05, **P<0.01 compared to the control, Student's t-test. Data are expressed as mean±SD (n=5-6).

BAC induced dry eye mice [3] = experiment: Benzalkonium chloride induced dry eye mice model (1), phenol red thread tear test; format: in vivo, Male BALB/c mice; conditions: 0.3% BAC day 1 to 7; eye drops 2, 5 or 10 μg/ml three times a day, day 8 to 19; topical, right eye
Experimental: Benzalkonium Chloride Induced Dry Eye Mice Model (1)
as §1, with “mice (6” for “mice (9”, “A (2, 5,” for “A (5,”, “day 8” for “day 15”
as §2, with “7, 11, 15, 19” for “14, 18, 20”, “2.” for “3.”

NGF = experiment: Tear NGF protein expression in BAC induced dry eye mice (western blot); format: in vivo; conditions: tear of BAC induced dry eye mice; eye drops 2, 5 or 10 μg/ml three times a day for 10 days
Experimental: Tear was collected from right eye of BAC induced dry eye mice by 10 μl PBS wash. Mice treated eyes drop of PBS as control and different concentration Compound A for 10 days. NGF protein was a positive control. 5 μl tear volume used in western blot.
The total protein concentration was determined by 1×Braford assay. To denature, use a loading buffer(7 ml 0.5M Tris pH6.8, 3 ml Glycerol, 1 g 10% SDS, 0.93 g DTT, […] 0.05% bromophenol blue, 10 ml), and boil the mixture at 95-100° C. for 5 minutes. Total protein was loaded 20-40 μg per mini-gel (12% SDS-polyacrylamide gel) well for electrophoresis. Then transfer the proteins into polyvinylidene difluoride membrane and blocking the membrane with 5-10% nonfat dried milk in TTBS. The membrane was incubated with the primary antibody overnight at 4° C. by shaking. Wash the membrane several times in TTBS to remove residual primary antibody. And the membrane was incubated with secondary antibody for 2 hours at room temperature.
The protein levels were determined by chemiluminescene detection system and analysis by Imagequant software. The results are shown in FIG. 4. *P<0.05, **P<0.01, ***P<0.001 compared to the control, Student's t-test. Data are expressed as mean±SD (n=4).

Which results are given for OC[C@H]1O[C@@H](Oc2c(O)cc(O)cc2/C=C/c2ccc(O)cc2)[C@H](O)[C@@H](O)[C@@H]1O [compound of Formula (I), 2,3,5,4′-tetrahydroxystilbene 2-O-β-D-glucopyranoside]?
cell viability after BAC damage [1]: increased cell viability; tear secretion (BAC induced dry eye mice [2]): improves tear secretion; tear secretion (BAC induced dry eye mice [3]): restored tear secretion; NGF expression level (NGF): increased the NGF gene expression level
